Reference: paper PMC11619344 (Antimicrobial Agents and Chemotherapy, 2024)
Values after ≈ are worked out from the molar mass of the structure shown.

Tests used:
Format in all cases: cell-based
[1] = test system: ST258/KPC-35 mutant IMI 2.2; assay: MIC, broth microdilution; conditions: Klebsiella pneumoniae
[2] = test system: ST512/KPC-31 mutant IMI 1.1; assay: MIC, broth microdilution; conditions: Klebsiella pneumoniae
[3] = test system: ST512/KPC-31 mutant IMI 2.2; assay: MIC, broth microdilution; conditions: Klebsiella pneumoniae
[4] = test system: ST512/KPC-31 mutant IMI 1.2; assay: MIC, broth microdilution; conditions: Klebsiella pneumoniae
[5] = test system: ST512/KPC-31 mutant IMI 2.1; assay: MIC, broth microdilution; conditions: Klebsiella pneumoniae
[6] = test system: ST258/KPC-35 mutant IMI 1.1; assay: MIC, broth microdilution; conditions: Klebsiella pneumoniae
[7] = test system: ST512/KPC-31 mutant IMI 3.1; assay: MIC, broth microdilution; conditions: Klebsiella pneumoniae
[8] = test system: ST258/KPC-35 mutant IMI 3.2; assay: MIC, broth microdilution; conditions: Klebsiella pneumoniae
[9] = test system: K. pneumoniae ST258/KPC-35 (KPC-2 L169P) parental clinical isolate; assay: MIC, broth microdilution; conditions: Klebsiella pneumoniae
[10] = test system: ST512/KPC-31 mutant IMI 3.2; assay: MIC, broth microdilution; conditions: Klebsiella pneumoniae
[11] = test system: ST258/KPC-35 mutant IMI 2.1; assay: MIC, broth microdilution; conditions: Klebsiella pneumoniae
[12] = test system: ST258/KPC-35 mutant IMI 1.2; assay: MIC, broth microdilution; conditions: Klebsiella pneumoniae
[13] = test system: ST258/KPC-35 mutant IMI 3.1; assay: MIC, broth microdilution; conditions: Klebsiella pneumoniae
[14] = test system: K. pneumoniae ST512/KPC-31 (KPC-3 D179Y) parental clinical isolate; assay: MIC, broth microdilution; conditions: Klebsiella pneumoniae
E. coli HB4 KPC-2 L169A = assay: MIC of recombinant strains; conditions: Escherichia coli, HB4KPC2L169A; E. coli HB4 expressing KPC-2 L169A in pUCP24
Method: (§1) 14.0 (www.eucast.org/clinical_breakpoints).
(§2) Recombinant strains were selected in 10 mg/L of gentamicin-LB agar plates. The β-lactam MICs were determined for the transformants according to the above-described methodology.

E. coli HB4 KPC-2 L169T = assay: MIC of recombinant strains; conditions: Escherichia coli, HB4KPC2L169T; E. coli HB4 expressing KPC-2 L169T in pUCP24
Method: as §1, §2

[15] = test system: E. coli HB4 KPC-35 (KPC-2 L169P); assay: MIC of recombinant strains; conditions: Escherichia coli; E. coli HB4 expressing KPC-35 (KPC-2 L169P) in pUCP24
Method: as §1, §2

E. coli HB4 = assay: MIC of recombinant strains; conditions: Escherichia coli; E. coli HB4 (OmpC- and OmpF-deficient), no KPC
Method: as §1, §2

E. coli HB4 KPC-3 D179N = assay: MIC of recombinant strains; conditions: Escherichia coli, HB4KPC3D179N; E. coli HB4 expressing KPC-3 D179N in pUCP24
Method: as §1, §2

E. coli HB4 KPC-3 = assay: MIC of recombinant strains; conditions: Escherichia coli, HB4KPC3; E. coli HB4 expressing KPC-3 in pUCP24
Method: as §1, §2

[16] = test system: E. coli HB4 KPC-31 (KPC-3 D179Y); assay: MIC of recombinant strains; conditions: Escherichia coli; E. coli HB4 expressing KPC-31 (KPC-3 D179Y) in pUCP24
Method: as §1, §2

E. coli HB4 KPC-2 = assay: MIC of recombinant strains; conditions: Escherichia coli, HB4KPC2; E. coli HB4 expressing KPC-2 in pUCP24
Method: as §1, §2

Row | SMILES | MIC [1] [µg/mL] | MIC [2] [µg/mL] | MIC [3] [µg/mL] | MIC [4] [µg/mL] | MIC [5] [µg/mL] | MIC [6] [µg/mL] | MIC [7] [µg/mL] | MIC [8] [µg/mL] | MIC [9] [µg/mL] | MIC [10] [µg/mL] | MIC [11] [µg/mL] | MIC [12] [µg/mL] | MIC [13] [µg/mL] | MIC [14] [µg/mL] | MIC (E. coli HB4 KPC-2 L169A) [µg/mL] | MIC (E. coli HB4 KPC-2 L169T) [µg/mL] | MIC [15] [µg/mL] | MIC (E. coli HB4) [µg/mL] | MIC (E. coli HB4 KPC-3 D179N) [µg/mL] | MIC (E. coli HB4 KPC-3) [µg/mL] | also measured
1 | NCC[C@H](O)C(=O)N[C@@H]1C[C@H](N)[C@@H](O[C@H]2O[C@H](CN)[C@@H](O)[C@H](O)[C@H]2O)[C@H](O)[C@H]1O[C@H]1O[C@H](CO)[C@@H](O)[C@H](N)[C@H]1O [AMI, amikacin] | > 32 | > 32 | > 32 | > 32 | > 32 | > 32 | > 32 | > 32 | > 32 | > 32 | > 32 | > 32 | > 32 | > 32 | – | – | – | – | – | – | –
2 | C[C@H]1[C@H](NC(=O)/C(=N\OC(C)(C)C(=O)O)c2csc(N)n2)C(=O)N1S(=O)(=O)O [AZT, aztreonam] | > 16 | > 16 | > 16 | > 16 | > 16 | > 16 | > 16 | > 16 | – | > 16 | > 16 | > 16 | > 16 | – | 64 | 128 | 16 | ≤ 0.5 | 8 | 256 | MIC [16]: 4 µg/mL; MIC (E. coli HB4 KPC-2): 512 µg/mL
3 | CC(C)(O/N=C(\C(=O)N[C@@H]1C(=O)N2C(C(=O)[O-])=C(C[n+]3ccccc3)CS[C@H]12)c1csc(N)n1)C(=O)O [CAZ, ceftazidime] | 128 (≈ 234 µM) | > 256 | > 256 | > 256 | > 256 | 256 (≈ 468 µM) | > 256 | 128 (≈ 234 µM) | > 256 | > 256 | 128 (≈ 234 µM) | 256 (≈ 468 µM) | 64 (≈ 117 µM) | > 256 | > 64 | > 64 | > 64 | 1 | > 64 | > 64 | MIC [16]: > 64 µg/mL; MIC (E. coli HB4 KPC-2): > 64 µg/mL
4 | C[C@@H](O)[C@H]1C(=O)N2C(C(=O)O)=C(S[C@@H]3CN[C@H](C(=O)Nc4cccc(C(=O)O)c4)C3)[C@H](C)[C@H]12 [ETP, ertapenem] | > 8 | > 8 | > 8 | > 8 | > 8 | > 8 | > 8 | > 8 | > 8 | > 8 | > 8 | > 8 | > 8 | > 8 | – | – | – | – | – | – | –
5 | CO/N=C(\C(=O)N[C@@H]1C(=O)N2C(C(=O)[O-])=C(C[N+]3(C)CCCC3)CS[C@H]12)c1csc(N)n1 [FEP, cefepime] | > 16 | > 16 | > 16 | > 16 | > 16 | > 16 | > 16 | > 16 | – | > 16 | > 16 | > 16 | > 16 | – | 64 | 128 | 64 | ≤ 0.5 | 16 | 128 | MIC [16]: 32 µg/mL; MIC (E. coli HB4 KPC-2): 256 µg/mL
6 | CNC(C)C1CCC(N)C(OC2C(N)CC(N)C(OC3OCC(C)(O)C(NC)C3O)C2O)O1 (stereo not shown) [GEN, gentamicin] | 4 (≈ 8.38 µM) | 4 (≈ 8.38 µM) | 8 (≈ 16.8 µM) | 8 (≈ 16.8 µM) | 4 (≈ 8.38 µM) | 4 (≈ 8.38 µM) | 4 (≈ 8.38 µM) | 4 (≈ 8.38 µM) | ≤ 2 | 4 (≈ 8.38 µM) | 4 (≈ 8.38 µM) | 4 (≈ 8.38 µM) | 4 (≈ 8.38 µM) | 4 (≈ 8.38 µM) | – | – | – | – | – | – | –
7 | C[C@H]1COc2c(N3CCN(C)CC3)c(F)cc3c(=O)c(C(=O)O)cn1c23 [LEV, levofloxacin] | > 8 | > 8 | > 8 | > 8 | > 8 | > 8 | > 8 | > 8 | > 8 | > 8 | > 8 | > 8 | > 8 | > 8 | – | – | – | – | – | – | –
8 | C[C@@H](O)[C@H]1C(=O)N2C(C(=O)O)=C(S[C@@H]3CN[C@H](C(=O)N(C)C)C3)[C@H](C)[C@H]12 [MEM, meropenem] | > 64 | > 64 | > 64 | > 64 | > 64 | > 64 | 32 (≈ 83.4 µM) | 64 (≈ 167 µM) | 4 (≈ 10.4 µM) | 32 (≈ 83.4 µM) | > 64 | > 64 | 64 (≈ 167 µM) | 4 (≈ 10.4 µM) | 16 | 16 | 2 | ≤ 0.06 | 0.25 | > 64 | MIC [16]: 0.5 µg/mL; MIC (E. coli HB4 KPC-2): > 64 µg/mL
9 | NC[C@H]1O[C@H](O[C@H]2[C@H](O)[C@@H](O[C@H]3O[C@H](CO)[C@@H](O)[C@H](N)[C@H]3O)[C@H](N)C[C@@H]2N)[C@H](N)C[C@@H]1O [TOB, tobramycin] | > 8 | > 8 | > 8 | > 8 | > 8 | > 8 | > 8 | > 8 | > 8 | > 8 | > 8 | > 8 | > 8 | > 8 | – | – | – | – | – | – | –
